Common to all, as to type: cell-based
One assay concerns VCAM-1 gene expression. The assay can be described thus: TNF-α induced VCAM-1 gene expression in rat primary aortic endothelial cells. To be noted: 10 pM, 60 minutes prior to TNF-alpha 10 ng/ml. As for the experimental part: (§1) Experiments were conducted to analyze for the effect of 5-HT2A receptor activation on proinflammatory marker expression in other cell types. Human neuroblastoma cells (SHSY5Y) and rat glioma cells (C6) can be obtained from the American Type Culture Collection (Manassas, Va.), but were provided Purdue University. The cells were grown in DMEM+10% FBS. DMEM was made and provided by the Cell and Molecular Core of the Mentoring in Cardiovascular Biology COBRE center at LSUHSC-NO. FBS was purchased from Invitrogen (Carlsbad, Calif.). Primary rat aortic endothelial cells were prepared fresh and provided by the Cell and Molecular Core of the Mentoring in Cardiovascular Biology COBRE center at LSUHSC-NO. Cells were tested at passages 3-4. Cells were grown in endothelial cell growth medium (Cell Applications, Inc.). Primary rat bronchoaveolar macrophage cells were obtained by lung lavage from rats and used at day 3 or 4 post plating in DMEM+10% FBS.
(§2) All treatments with 5-HT2A receptor agonists occurred 1 hour prior to the addition of TNF-alpha (10 ng/ml) or LPS (100 ng or 1 mg) depending on the experiment. All RNA isolations, cDNA synthesis, QPCR gene expression assays examining ICAM1, VCAM1, and IL6, and data analysis were performed as described above in Example 1, except the primers were different for the human cell experiment. […]

The next assay has as its system ICAM-1 gene expression. Put plainly: TNF-α induced ICAM-1 gene expression in primary rat aortic smooth muscle cells. To be noted: for IC50: Rattus norvegicus. The protocol:
RASM cells and treatment. Rat aortic smooth muscle (RASM) cells were isolated from adult 180 g male Sprague-Dawley rats and provided by the Cell and Molecular Core Facility in the Department of Pharmacology at LSUHSC-NO. Isolated RASM cells were grown in M-199 media containing 10% fetal bovine serum (Gibco), 100 units/mL penicillin, and 100 µg/mL streptomycin, and incubated at 37° C. in 5% CO2. Cells for all assays were used between passages 3 and 5. Prior to treatments, cells were grown in M-199 media with 10% fetal bovine serum (FBS) until 30-50% confluent. For most assays, cells were treated with (R)-DOI, or other drugs as indicated, at specific concentrations for 24 hours, followed by TNF-α (10 ng/ml) and (R)-DOI at the same pretreatment concentrations in fresh M-199 media. After another 24 hours, the cells were scraped, pelleted, and processed for RNA.
RNA isolation and Quantitative Realtime-PCR. RNA was extracted from cells using Illustra RNAspin Mini kits from GE Healthcare Life Sciences (Piscataway, N.J.) following protocols supplied by the manufacturer. First strand cDNA was generated using the ImProm-II cDNA synthesis kit (Promega) following the manufacturers protocols. Q-RT-PCR was performed using the ProbeLibrary system from Roche (Indianapolis, Ind.) in combination with the HotStart-IT probe qpcr master mix from USB Biological (Cleveland, Ohio) following manufactures protocols.
Primers were synthesized by IDT (Coralville, Iowa). ProbeLibrary probes from Roche were: U3, U74, U13, U106, U79 for 5-HT2AR, ICAM-1, VCAM-1, IL-6, and cyclophillin B, respectively. Quantitative determination of gene expression levels using a 2-step cycling protocol was performed on a MyIQ-5 Cycler (Bio-Rad, Hercules Calif.). Relative gene expression levels were calculated using the 2^[−ΔΔC(T)] method. Levels of all targets from the test samples were normalized to rat cyclophillin B expression.
To examine the effects of 5-HT2A receptor activation on TNF-α mediated proinflammatory gene expression, RASM cells were pretreated with (R)-DOI, a selective 5-HT2 receptor agonist, as described above. Dose-response curves were determined for the effects on ICAM-1, VCAM-1, and IL-6 gene expression for twelve different concentrations of (R)-DOI ranging from 0.1 pM to 100 nM, with each experiment repeated in triplicate. In FIGS. 1A-1C, the Y-axis represents a percent of TNF-α for the dose of (R)-DOI indicated on the X-axis.

The subject of another assay is IL-6 expression. Put plainly: TNF-α induced IL-6 expression in rat primary aortic endothelial cells. Particulars: 10 pM, 60 minutes prior to TNF-alpha 10 ng/ml. As for the experimental part:
as §1, §2

Usually IC50 stands for the concentration that inhibits the measured activity by half.

Like-named read-outs stand apart in the source and are kept apart here.

Take `COc1cc(C[C@@H](C)N)c(OC)cc1I` [(R)-DOI, (R)-1-(2,5-dimethoxy-4-iodophenyl)-2-aminopropane]: in the assay with VCAM-1 gene expression, the “effect on TNF-alpha induced increase in VCAM-1 gene expression in aortic endothelial cells” value is given as “less potent”. Also, the “block of TNF-α induced ICAM1 gene expression at 1 nM” value with ICAM-1 gene expression (1 nM pretreatment, VCAM1 and IL6 identical) is “blocked gene expression”. Further, the “block of TNF-α effect on ICAM-1 expression with 24 hour and one hour pretreatments and simultaneous treatment” value in the assay with ICAM-1 gene expression (1 nM, TNF-α 10 ng/ml) is recorded as “completely blocked”. The IC50 in the assay with ICAM-1 gene expression (RASM passage 4, media with FBS, 24 h pretreatment, TNF-α 10 ng/ml, read-out: IC50 for proinflammatory gene expression inhibition for ICAM-1) is 0.0195 nM; in the assay on ICAM-1 gene expression (RASM passage 4, serum starved for 8 hours, read-out: IC50 for ICAM-1 gene expression inhibition in serum-free media) it was 0.36 nM. The “effect on TNF-α-induced IL-6 expression in aortic endothelial cells” value in the assay on IL-6 expression is listed as “potently inhibited”.

The values above are taken from US9642819B2, “Low dosage serotonin 5-HT2A receptor agonist to suppress inflammation” (BOARD OF SUPERVISORS OF LOUISIANA STATE UNIVERSITY AND …, priority 2008, dated 2017).
